pIC50, pKd, pKi: −log10 of the molar value. Where two headings read alike, the source gives them in different places.
Tests used:
[1] = target: GE23077; assay: partial-competitive binding of GE and Rif: association kinetics for Rif (fluorescence intensity of fluorescein-labelled RNAP holoenzyme); conditions: 2000 nM GE
[2] = test system: E. coli D21f2tolC; assay: Resistance and cross-resistance levels, rpoB mutants from saturation mutagenesis (plasmid-borne), broth microdilution; format: cell-based, Escherichia coli
[3] = target: T1, E. coli RNAP holoenzyme (Escherichia coli, UniProt P0A8T7+P0A8V2); format: biochemical; conditions: 0.5 μM GE or 2.2 μM Rif; lacUV5(ICAP) promoter
[4] = target: T1, E. coli RNAP holoenzyme; format: biochemical; conditions: halted TEC containing 29 nt RNA product
[5] = target: T1, E. coli RNAP holoenzyme; format: biochemical; conditions: 0.5 μM GE or 2.2 μM Rif; ApA primer and UTP
[6] = target: T2, E. coli RNAP holoenzyme ([F^517]σ^70-RNAP holoenzyme) (Escherichia coli, UniProt P0A8T7+P0A8V2); assay: Fluorescence-detected RNAP-Rif interaction assay; format: binding; conditions: for pKd: calculated as koff/kon
T2 construct: made in house
Protocol: RNAP-Rif interaction assays were performed as in [Feklistov et al. (2008)]. The assays monitored the quenching of the fluorescence emission of fluorescein incorporated into RNAP holoenzyme at σ^70 residue 517 (serving as a fluorescence-resonance-energy-transfer donor) by the naphthyl moiety of Rif (serving as a fluorescence-resonance-energy-transfer acceptor; [Knight et al., 2005]; [Feklistov et al., 2008]). Fluorescence measurements were performed using a QuantaMaster QM1 spectrofluorometer (PTI, Edison, NJ) (excitation wavelength = 480 nm; emission wavelength = 530 nm; and excitation and emission slit widths = 5 nm).
For determination of association kinetics, 720 μl 2 nM [F^517]σ^70-RNAP holoenzyme and 0-2 μM GE in 40 mM Tris–HCl, pH 8.0, 100 mM NaCl, 10 mM MgCl2, 1 mM DTT, 0.02% Tween-20, and 5% glycerol was incubated 15 min at 24°C and then mixed with 30 μl 0.01–0.5 μM Rif in the same buffer at 24°C in a cuvette chamber with a mixing dead time ∼0.5 s, and fluorescence emission intensities were monitored for 30 min at 24°C. On-rates for RNAP-Rif interaction, kon, were calculated by fitting data to: I=(I0−I∞)exp(−kobst)+I∞ where kobs is the observed association rate constant at a specified Rif concentration, I is the fluorescence emission intensity at time t, Io is the fluorescence emission intensity at t = 0, and I∞ is the fluorescence emission intensity at t = ∞; followed by fitting the Rif-concentration-dependence of kobs to: kobs=kon[Rif]+koff where koff is ≥0 but is otherwise unconstrained.
Off-rates for RNAP-Rif interaction, koff, were calculated as: I=I0+(I∞−I0)[1−exp(−kofft)] where I is the fluorescence emission intensity at time t, Io is the fluorescence intensity at t = 0, and I∞ is the fluorescence intensity at t = ∞.
Equilibrium dissociation constants for RNAP-Rif interaction, Kd, were calculated as koff/kon.
The equilibrium dissociation constant for RNAP-GE interaction, Ki, was calculated from the association-kinetics data, by fitting the GE-concentration-dependence of I∞ to: I∞=(I∞,max[GE])/(Ki+[GE])

[7] = target: [Asn516]β-RNAP (Escherichia coli, UniProt P0A8T7+P0A8V2, D516N); assay: biochemical; format: biochemical
[8] = target: [Asp565]β-RNAP (Escherichia coli, UniProt P0A8T7+P0A8V2, E565D); format: biochemical
[9] = target: Escherichia coli RNAP (Escherichia coli, UniProt P0A8T7+P0A8V2); assay: biochemical; format: biochemical; conditions: wild-type RNAP; at the limit of detection of the assay
[10] = target: [F^517]σ^70-RNAP holoenzyme (E. coli RNAP holoenzyme labelled with fluorescein at σ^70 residue 517), wild-type RNAP (E. coli) (UniProt P0A8V2); assay: other fluorescence titration
[11] = rpoB 565 Glu→Asp, GE^R mutant from saturation mutagenesis
[12] = rpoB 566 Gly→Arg, GE^R mutant from saturation mutagenesis
[13] = rpoB 566 Gly→Cys, GE^R mutant from saturation mutagenesis
[14] = rpoB 566 Gly→Ser, GE^R mutant from saturation mutagenesis
[15] = rpoB 684 Asn→Lys, GE^R mutant from saturation mutagenesis
[16] = rpoB 684 Asn→Thr, GE^R mutant from saturation mutagenesis
[17] = wild-type control of the saturation-mutagenesis mutants, E. coli D21f2tolC

Row | Molecule | resistance / cross-resistance level (MIC/MICwild-type) [2, 11] | resistance / cross-resistance level (MIC/MICwild-type) [2, 12] | resistance / cross-resistance level (MIC/MICwild-type) [2, 13] | resistance / cross-resistance level (MIC/MICwild-type) [2, 14] | resistance / cross-resistance level (MIC/MICwild-type) [2, 15] | resistance / cross-resistance level (MIC/MICwild-type) [2, 16] | MICwild-type [2, 17] [µg/mL] | further results
1 | [F^517]σ^70-RNAP holoenzyme (E. coli RNAP holoenzyme labelled with fluorescein at σ^70 residue 517), wild-type RNAP (from UniProt P0A8V2;P0A8T7;P00579) [Lys684]β | – | – | – | – | – | – | – | pKi [1]: < 5.70
2 | CNC(=O)[C@@H](C)[C@H]1C(=O)/C(=C(O)/C=C/C(C)=C/[C@@H](C)[C@H]2O[C@@]3(C)O[C@H](C=C[C@@]34CO4)[C@@H]2C)C(=O)N1[C@@H]1CC[C@H](O)[C@H](C)O1 [Stl, streptolydigin] | – | – | – | – | – | – | – | MICwild-type ([2]; {}): 0.78 µg/mL; resistance / cross-resistance level (MIC/MICwild-type) ([2]; {}): 1
3 | CO[C@H]1/C=C/O[C@@]2(C)Oc3c(C)c(O)c4c(O)c(c(/C=N/N5CCN(C)CC5)c(O)c4c3C2=O)NC(=O)/C(C)=C\C=C\[C@H](C)[C@H](O)[C@@H](C)[C@@H](O)[C@@H](C)[C@H](OC(C)=O)[C@@H]1C [Rif, Rifampin] | – | – | – | – | – | – | – | inhibition of formation of RNAP-promoter open complex (RPo) [3]: does not inhibit formation of RPo; inhibition of nucleotide addition in transcription elongation, halted elongation complex [4]: does not inhibit nucleotide addition in transcription elongation; MICwild-type: 0.2 µg/mL; inhibition of first nucleotide addition, primer-dependent transcription initiation [5]: does not generally inhibit the first nucleotide-addition step in transcription initiation; cross-resistance of GE^R mutants to other RNAP inhibitors ([2]; GE^R mutants): do not exhibit cross-resistance; resistance / cross-resistance level (MIC/MICwild-type) ([2]; {}): 1; pKd ([6]; absence of GE): 9.40; pKd ([6]; presence of saturating GE (2000 nM)): 7.52; koff ([6]; read-out: koff for Rif, 0 nM GE, Figure 6-figure supplement 1): 0.00019 s⁻¹; koff ([6]; read-out: koff for Rif, absence of GE, Figure 6C): 0.0002 s⁻¹; kon ([6]; read-out: kon for Rif, 0 nM GE, Figure 6-figure supplement 1 (condition assigned by comparison with Figure 6C)): 520000 M⁻¹ s⁻¹; kon ([6]; read-out: kon for Rif, absence of GE, Figure 6C): 500000 M⁻¹ s⁻¹
4 | Lipiarmycin [Lpm] | 1 | 1 | 1 | 1 | 1 | 1 | 0.78 | –
5 | CCC/C(C)=C/C=C(\C)C(=O)c1c(O)cc([C@H](C)CC/C=C/NC(=O)OC)oc1=O (racemic) [Myx, (±)E,E-myxopyronin B] | 1 | 1 | 1 | 1 | 1 | 1 | 0.098 | –
6 | CO[C@H]1/C=C/O[C@@]2(C)Oc3c(C)c(O)c4c(O)c(cc(O)c4c3C2=O)NC(=O)/C(C)=C\C=C\[C@H](C)[C@H](O)[C@@H](C)[C@@H](O)[C@@H](C)[C@H](OC(C)=O)[C@@H]1C [RifSV, rifamycin SV] | – | – | – | – | – | – | – | pIC50 [7]: 5.00
7 | [F^517]σ^70-RNAP holoenzyme (E. coli RNAP holoenzyme labelled with fluorescein at σ^70 residue 517), wild-type RNAP (from UniProt P0A8V2;P0A8T7;P00579) [Asp565]β | – | – | – | – | – | – | – | pKi [1]: < 5.70
8 | ONC(=Nc1ccccc1)c1cccc(C(F)(F)F)c1 [CBR703] | 1 | 1 | 1 | 1 | 1 | 2 | 6.25 | –
9 | CO[C@H]1/C=C/O[C@@]2(C)Oc3c(C)c(O)c4c(O)c(c(NC(C)C(C)C(=O)NC[C@H]5NC(=O)CNC(=O)[C@H](O)CNC(=O)[C@@H]([C@@H](C)O)NC(=O)[C@H]([C@@H](O)[C@H](O)C(N)=O)NC(=O)[C@@H](C(C)C)NC(=O)[C@@H](CO)NC5=O)c(O)c4c3C2=O)NC(=O)/C(C)=C\C=C\[C@H](C)[C@H](O)[C@@H](C)[C@@H](O)[C@@H](C)[C@H](OC(C)=O)[C@@H]1C (stereo partly drawn) [RifaGE-3, {[α-descarboxy-Ama]GE}-NH-{RifSV}] | – | – | – | – | – | – | – | fold more potent than GE in inhibition of GE^R RNAP [8]: > 2500 fold; pIC50 [9]: ≥ 7.40; fold more potent than RifSV in inhibition of Rif^R RNAP [7]: 50 fold; pIC50 ([7]; Rif-resistant RNAP [Asn516]β-RNAP, read-out: IC50): 6.70
10 | Sorangicin | 1 | 1 | 1 | 1 | 1 | 1 | 1.56 | –
11 | GE23077 (peptide) | – | – | – | – | – | – | – | pKi [10]: 8.22
